Experimental data: EP0101944A1, “Immunomodulators containing as the active ingredient alpha-benzyl malic acid” (MICROBIAL CHEMISTRY RESEARCH FOUNDATION, priority 1982, dated 1984)

How the values were obtained:
cell-mediated immunity [1] = test: Delayed-type hypersensitivity (D.T.H.) to sheep red blood cells, foot pad swelling in normal mice; type: in vivo, CDF1 mice; conditions: single dose; for Thickness of the foot pad: SRBC-sensitized female CDF1 mice, measured 24 h after challenge, control 8.6 ± 1.29; for % on the control's value: foot pad thickness, control = 100 %
Experimental: The action of &-benzyl malic acid on cell-mediated immunity was investigated using as its index the degree of delayed-type hypersensitivity (hereinafter referred to as D.T.H.) obtained by inoculating the foot pads of mice with sheep red blood cells (hereinafter referred to as SRBC) used as the antigen (Reference: J.Exp.Med. 139, 1529-1539, 1974).
A suspension of […] SRBCs in 0.05 ml of physiological saline solution was inoculated subcutaneously to the foot pad of one of the hind legs of CDF1 mice (female, 8 weeks old). Simultaneously, an aqueous solution containing 5, 0.5, 0.05 or 0.005 mg/kg of α-benzyl malic acid was administered intraperitoneally in a single dose. Four days after administration, a suspension of 10^8 SRBCs in 0.05 ml of physiological saline solution was subcutaneously administered to the foot pad of the other hind leg to induce secondary immune response. Twenty-four hours later, swelling on the foot pad (increased thickness of the foot pad) was measured with a calipers. The thickness of the foot pad in control animals, which had been sensitized with SRBCs and intraperitoneally administered physiological saline solution without having received the test compound, was evaluated to be 100 %. The thickness of the foot pad in the test animals that had been treated in the aforementioned way was compared with that in the control animals, thereby judging the cell-mediated immunity potentiating effect of the test compound.

cell-mediated immunity [2] = test: Picryl chloride ear swelling in cancer-inflicted (Ascites Sarcoma 180) mice; type: in vivo, CDF1 mice; conditions: for Increase in ear thickness: Sarcoma 180-bearing female CDF1 mice, picryl chloride, control 4.11 ± 1.11; for Rate to the control value: increase in ear thickness T/C, control = 100.0
Description: (Effect on cell-mediated immunity in cancer-inflicted mice; picryl chloride was used as the antigen)
10^6 cells of Ascites Sarcoma 180 were intraperitoneally transplanted to groups of 12-week-old female CDF1 mice (6 mice/group). The day of transplantation was designated as Day 0. On Day 1, a 6 % solution of picryl chloride in ethanol was applied to a shaven skin (25 mm x 15 mm) of the abdomen with the use of a cut absorbent cotton (20 mm x 20 mm x 2 mm) impregnated with the solution to thereby sensitize the mice. On Day 8, both ears were measured for thickness with a dial gauge, to determine the baseline value (a).
Then, both ears were sensitized with a 20 mm x 4 mm x 1 mm cut absorbent cotton impregnated with a 1 % solution of picryl chloride in olive oil. On Day 9, both swollen ears were measured for their thickness with a dial gauge to obtain a value (b). The baseline value (a) was subtracted from the value (b) to determine the increase in ear thickness (b - a) for the control group (C).
On the other hand, 5.0, 0.5, 0.05 or 0.005 mg/kg of the test compound dissolved in physiological saline solution was orally administered once daily for 6 consecutive days between the day and 8 days after inoculation of Sarcoma 180. The mice were sensitized with picryl chloride in the same way as in the control group, and the thickness of the ears was similarly measured to determine the increase in ear thickness (b' - a') for the treatment group (T).
The rate of increase in ear thickness for the treatment group to that for the control group was calculated from the following equation: [formula] to determine the cell-mediated immunity modulating activity of the present compound.

[3] = Acute toxicity test in mice; type: in vivo; conditions: i.v. dose of 500 mg/kg
Description: The present compound is therefore believed to be a safe substance.

[4] = 0.005 mg/kg orally once daily for 6 consecutive days
[5] = 0.05 mg/kg orally once daily for 6 consecutive days
[6] = 0.5 mg/kg orally once daily for 6 consecutive days
[7] = 5.0 mg/kg orally once daily for 6 consecutive days

Compound	Thickness of the foot pad (cell-mediated immunity [1]; 0.5 mg/kg intraperitoneally)	% on the control's value (cell-mediated immunity [1]; 0.5 mg/kg intraperitoneally)	Increase in ear thickness (cell-mediated immunity [2]; [4])	Rate to the control value (cell-mediated immunity [2]; [4])	Increase in ear thickness (cell-mediated immunity [2]; [5])	Increase in ear thickness (cell-mediated immunity [2]; 0.05 mg/kg orally once daily for 6 consecutive days, listed as the present compound)	Rate to the control value (cell-mediated immunity [2]; [5])	Increase in ear thickness (cell-mediated immunity [2]; [6])	Rate to the control value (cell-mediated immunity [2]; [6])	Increase in ear thickness (cell-mediated immunity [2]; [7])	Rate to the control value (cell-mediated immunity [2]; [7])	Thickness of the foot pad (cell-mediated immunity [1]; 0.005 mg/kg intraperitoneally)	% on the control's value (cell-mediated immunity [1]; 0.005 mg/kg intraperitoneally)	Thickness of the foot pad (cell-mediated immunity [1]; 0.05 mg/kg intraperitoneally)	% on the control's value (cell-mediated immunity [1]; 0.05 mg/kg intraperitoneally)	Thickness of the foot pad (cell-mediated immunity [1]; 5 mg/kg intraperitoneally)	% on the control's value (cell-mediated immunity [1]; 5 mg/kg intraperitoneally)	deaths in acute toxicity tests [3]
CC(C)C[C@H](NC(=O)[C@@H](O)[C@H](N)Cc1ccccc1)C(=O)O [Bestatin, [(2S,3R)-5-amino-2-hydroxy-4-phenyl-(S)-leucine], reference compound]	12.6 ± 1.12 x 0.1 mm	147%	–	–	–	–	–	–	–	–	–	–	–	–	–	–	–	–
O=C(O)CC(O)(Cc1ccccc1)C(=O)O (stereo not drawn) [α-benzyl malic acid]	14.4 ± 1.52 x 0.1 mm	167%	5.18 ± 0.67 x 0.01 mm	126.0%	5.29 ± 0.33 x 0.01 mm	5.29 + 0.33 x 0.01 mm	128.7%	5.08 ± 0.56 x 0.01 mm	123.6%	4.71 ± 0.95 x 0.01 mm	114.6%	11.8 ± 1.15 x 0.1 mm	137%	13.4 ± 1.61 x 0.1 mm	156%	12.8 ± 1.42 x 0.1 mm	149%	no deaths
